Tests used:
Solubility in solvents = assay type: physicochemical
[1] = Stability in solution (HPLC analysis); assay type: physicochemical; settings: for amount reduced after incubation: aqueous solution, 52° C., 4 h; for stability in solutions: water, MeOH, DMSO
From the text: The structures of 1 and 2 are similar to the structure of a known pyroglutamyl peptidase inhibitor pyrizinostatin. Pyrizinostatin has the same two-ring system (compound 3) but with a ketone side chain. Both 1 and 2 are optically active. It is possible that 1 and 2 are enantioselectively synthesized by the microorganism starting from 3 and 5. […] Upon storage, and during the isolation and purification process, decomposition predominates. […] The formation of 3 was evidenced by HPLC analysis.

PTP = experiment: Bioassay for PTP inhibitory activity; assay type: biochemical; settings: for PTP inhibitory activity after prolonged storage of solution: TFA salt solution after prolonged storage; for PTP inhibitory activity of fresh solution: TFA salt, amount of 3 below 1 mole %; for PTP inhibitory activity in bioassay: isolated material, 1 and 2 contaminated with about 6-10% of 3; for effect on in vitro activity of the PTPs tested: 1 μM, receptor and non-receptor PTPs
Procedure: HTS for inhibitory activity towards PTPα was performed in 96 well plates (Nunclon). Dephosphorylation of the substrate (pNPP) was measured in 180 μL reactions/well in assay buffer containing 50 mM sodium acetate (pH 5.5), 0.5 mg/mL BSA and 0.5 mM dithiothreitol. The purified enzyme PTPα (0.3 μg/well) and extracts (5 μL in 50% methanol) were preincubated for 5–10 min at room temperature in a volume of 170 μl. Reactions were initiated by adding 10 μL of substrate in assay buffer to a final concentration of 2 mM. For each plate, 6 reference control wells containing PTPα were preincubated with 5 μL 50% methanol at the same time as the test samples. As a positive control for PTPα inhibition, 1 μM Na3VO4, a potent inhibitor of PTPs, was added to some wells. Blank wells contained 5 μL 50% methanol, 2 mM pNPP in assay buffer and no enzyme. For each set of experiments (from 2–5 plates), reference controls in a separate plate were read at different time points to check the linearity of the reaction. Reactions were stopped with 25 μL KH2PO4 after 45–60 mins incubation at room temperature. The plates were read immediately in a multilabel counter (Wallac 1420 Victor). The OD405 of the reference wells ranged between 0.7–1.2, which represents <10% conversion of the substrate and falls within the linear part of the reaction. Percentage inhibition was determined using the formula: % Inhibition=[{(OD ref−OD blank)−(OD test−OD blank)}/(OD ref−OD blank)]×100 Phosphatase Assay: […]

Mycobacterium smegmatis = experiment: Antimicrobial activity, Mycobacterium smegmatis; assay type: cell-based; settings: 50 μM or 100 μM
Staphylococcus aureus = experiment: Antimicrobial activity, Staphylococcus aureus; assay type: cell-based; settings: 50 μM or 100 μM
Escherichia coli = experiment: Antimicrobial activity, Escherichia coli; assay type: cell-based; settings: 50 μM or 100 μM
Enterococcus faecalis = experiment: Antimicrobial activity, Enterococcus faecalis; assay type: cell-based; settings: 50 μM or 100 μM
Proteus vulgaris = experiment: Antimicrobial activity, Proteus vulgaris; assay type: cell-based; settings: 50 μM or 100 μM
Pseudomonas aeruginosa = experiment: Antimicrobial activity, Pseudomonas aeruginosa; assay type: cell-based; settings: 50 μM or 100 μM
Candida albicans = experiment: Antimicrobial activity, Candida albicans; assay type: cell-based; settings: 50 μM or 100 μM
Curvualaria sp. = experiment: Antimicrobial activity, Curvualaria sp.; assay type: cell-based; settings: 50 μM or 100 μM
λPP = target: T1, λPP (Escherichia phage lambda, UniProt P03772); experiment: Phosphatase assay (pNPP dephosphorylation), λPP; settings: for percentage activity of λPP relative to control: 1 μM compound, phosphatase 5.0 nM, pNPP, average of three enzyme preparations ± S.D.
T1 sequence (P03772 1-221): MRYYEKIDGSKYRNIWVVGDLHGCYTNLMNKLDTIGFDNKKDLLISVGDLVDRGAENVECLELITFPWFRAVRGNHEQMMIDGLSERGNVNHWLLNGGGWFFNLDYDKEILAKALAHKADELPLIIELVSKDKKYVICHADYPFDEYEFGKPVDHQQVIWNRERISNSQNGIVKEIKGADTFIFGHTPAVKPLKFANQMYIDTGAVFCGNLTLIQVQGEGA

CD45 = target: T2, CD45 (Homo sapiens, UniProt P08575); experiment: Phosphatase assay (pNPP dephosphorylation), CD45; settings: for percentage activity of CD45 relative to control: 1 μM compound, phosphatase 1.0 nM, pNPP, average of three enzyme preparations ± S.D.
T2 sequence (P08575 599-1306 limits assumed): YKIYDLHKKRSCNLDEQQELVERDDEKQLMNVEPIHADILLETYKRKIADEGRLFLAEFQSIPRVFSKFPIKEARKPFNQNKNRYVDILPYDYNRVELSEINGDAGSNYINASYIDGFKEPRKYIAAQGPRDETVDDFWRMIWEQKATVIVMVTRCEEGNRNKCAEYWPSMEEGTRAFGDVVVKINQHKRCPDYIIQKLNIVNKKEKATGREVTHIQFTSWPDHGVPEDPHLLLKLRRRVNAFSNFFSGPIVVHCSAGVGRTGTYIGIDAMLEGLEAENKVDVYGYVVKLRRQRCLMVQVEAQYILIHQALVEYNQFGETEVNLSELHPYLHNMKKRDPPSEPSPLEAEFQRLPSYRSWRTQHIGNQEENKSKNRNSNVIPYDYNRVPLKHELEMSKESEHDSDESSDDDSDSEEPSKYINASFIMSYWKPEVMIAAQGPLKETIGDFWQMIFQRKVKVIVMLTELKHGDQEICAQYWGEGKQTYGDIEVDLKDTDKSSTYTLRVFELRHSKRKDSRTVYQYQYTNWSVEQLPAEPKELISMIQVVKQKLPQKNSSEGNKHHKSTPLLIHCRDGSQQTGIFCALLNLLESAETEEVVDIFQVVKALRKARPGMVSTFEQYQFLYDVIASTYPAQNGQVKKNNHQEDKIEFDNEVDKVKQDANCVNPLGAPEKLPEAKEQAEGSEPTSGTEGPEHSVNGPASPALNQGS

TCPTP = target: T3, TCPTP (Homo sapiens, UniProt P17706); experiment: Phosphatase assay (pNPP dephosphorylation), TCPTP; settings: for percentage activity of TCPTP relative to control: 1 μM compound, phosphatase 1.0 nM, pNPP, average of three enzyme preparations ± S.D.
T3 sequence (P17706 1-317 limits assumed): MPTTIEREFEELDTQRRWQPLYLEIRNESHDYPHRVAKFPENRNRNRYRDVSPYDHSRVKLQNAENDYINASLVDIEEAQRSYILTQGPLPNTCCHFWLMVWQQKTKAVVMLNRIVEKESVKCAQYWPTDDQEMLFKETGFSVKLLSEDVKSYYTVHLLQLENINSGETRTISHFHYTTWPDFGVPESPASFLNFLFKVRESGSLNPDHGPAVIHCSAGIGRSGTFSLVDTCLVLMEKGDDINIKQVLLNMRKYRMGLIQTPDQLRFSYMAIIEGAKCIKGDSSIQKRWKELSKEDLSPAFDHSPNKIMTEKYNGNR

LAR-D1 = target: T4, LAR-D1 (Homo sapiens, UniProt P10586); experiment: Phosphatase assay (pNPP dephosphorylation), LAR-D1; settings: for percentage activity of LAR-D1 relative to control: 1 μM compound, phosphatase 5.0 nM, pNPP, average of three enzyme preparations ± S.D.
T4 sequence (P10586 1352-1607 limits assumed): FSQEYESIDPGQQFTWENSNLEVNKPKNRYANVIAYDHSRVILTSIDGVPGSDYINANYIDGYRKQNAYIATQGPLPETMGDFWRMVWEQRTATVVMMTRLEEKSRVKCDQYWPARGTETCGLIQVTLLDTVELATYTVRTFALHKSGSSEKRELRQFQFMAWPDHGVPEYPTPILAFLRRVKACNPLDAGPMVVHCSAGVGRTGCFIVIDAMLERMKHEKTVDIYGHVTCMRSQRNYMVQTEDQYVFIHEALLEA

εD1D2 = εD1D2 (Homo sapiens, UniProt P23469); experiment: Phosphatase assay (pNPP dephosphorylation), PTPε D1D2; settings: for percentage activity of εD1D2 relative to control: 1 μM compound, phosphatase 1.0 nM, pNPP, average of three enzyme preparations ± S.D.
εD1D2, sequence (P23469 70-700 limits assumed): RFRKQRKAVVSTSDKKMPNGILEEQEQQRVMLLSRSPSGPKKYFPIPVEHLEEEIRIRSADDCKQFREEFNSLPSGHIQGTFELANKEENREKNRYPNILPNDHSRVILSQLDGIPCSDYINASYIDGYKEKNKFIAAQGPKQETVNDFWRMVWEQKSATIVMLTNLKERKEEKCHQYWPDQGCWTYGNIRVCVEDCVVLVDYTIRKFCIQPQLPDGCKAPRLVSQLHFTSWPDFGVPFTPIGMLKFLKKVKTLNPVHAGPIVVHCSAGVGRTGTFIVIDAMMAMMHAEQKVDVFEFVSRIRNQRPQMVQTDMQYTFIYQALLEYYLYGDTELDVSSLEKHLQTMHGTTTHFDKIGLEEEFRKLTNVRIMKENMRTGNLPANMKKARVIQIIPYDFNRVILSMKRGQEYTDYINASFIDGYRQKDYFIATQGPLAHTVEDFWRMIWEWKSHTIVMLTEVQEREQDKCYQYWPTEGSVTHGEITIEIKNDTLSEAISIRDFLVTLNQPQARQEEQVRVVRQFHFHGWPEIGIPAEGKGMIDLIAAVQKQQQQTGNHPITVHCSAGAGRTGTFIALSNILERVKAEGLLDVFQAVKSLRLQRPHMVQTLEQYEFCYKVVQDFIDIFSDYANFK

αD1D2 = αD1D2 (Homo sapiens, UniProt P18433); experiment: Phosphatase assay (pNPP dephosphorylation), PTPα D1D2; settings: for percentage activity of αD1D2 relative to control: 1 μM compound, phosphatase 5.0 nM, pNPP, average of three enzyme preparations ± S.D.
αD1D2, sequence (P18433 175-802): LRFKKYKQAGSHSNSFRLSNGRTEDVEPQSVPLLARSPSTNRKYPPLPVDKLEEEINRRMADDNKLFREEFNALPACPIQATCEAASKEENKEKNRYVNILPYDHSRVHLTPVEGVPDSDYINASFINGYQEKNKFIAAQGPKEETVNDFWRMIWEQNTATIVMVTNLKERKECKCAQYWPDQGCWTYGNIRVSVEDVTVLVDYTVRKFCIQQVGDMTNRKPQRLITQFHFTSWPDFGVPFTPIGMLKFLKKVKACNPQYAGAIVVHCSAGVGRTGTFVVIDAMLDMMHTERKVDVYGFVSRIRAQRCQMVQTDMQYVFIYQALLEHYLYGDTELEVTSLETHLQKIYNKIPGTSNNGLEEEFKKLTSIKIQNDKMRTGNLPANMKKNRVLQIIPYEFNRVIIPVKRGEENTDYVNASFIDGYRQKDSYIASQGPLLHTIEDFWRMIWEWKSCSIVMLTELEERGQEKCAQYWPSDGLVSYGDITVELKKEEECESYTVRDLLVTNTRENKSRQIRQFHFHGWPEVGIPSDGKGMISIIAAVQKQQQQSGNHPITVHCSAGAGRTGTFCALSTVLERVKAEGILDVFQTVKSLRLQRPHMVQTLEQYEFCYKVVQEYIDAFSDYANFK

CIP = experiment: Phosphatase assay (pNPP dephosphorylation, pH 7), CIP; settings: for percentage activity of CIP relative to control: 1 μM compound, phosphatase 0.5 nM, pNPP, pH 7, average of three enzyme preparations ± S.D.; for effect on pNPP phosphatase activity of CIP: neutral pH

| solubility in DMSO, methanol and water (Solubility in solvents) | solubility in dichloromethane, chloroform and hexanes (Solubility in solvents) | amount reduced after incubation [1] [%] | stability in solutions [1] | SMILES | PTP inhibitory activity after prolonged storage of solution (PTP) | PTP inhibitory activity of fresh solution (PTP) | PTP inhibitory activity in bioassay (PTP) | effect on in vitro activity of the PTPs tested (PTP) | percentage activity of λPP relative to control (λPP) [%] | percentage activity of CD45 relative to control (CD45) [%] | percentage activity of TCPTP relative to control (TCPTP) [%] | percentage activity of LAR-D1 relative to control (LAR-D1) [%] | percentage activity of εD1D2 relative to control (εD1D2) [%] | percentage activity of αD1D2 relative to control (αD1D2) [%] | percentage activity of CIP relative to control (CIP) [%] | effect on pNPP phosphatase activity of CIP (CIP) | also measured |
| --- | --- | --- | --- | --- | --- | --- | --- | --- | --- | --- | --- | --- | --- | --- | --- | --- | --- |
| soluble | insoluble | 62 | unstable | CN1N=C2N(C)C(=O)N(C)C(=O)C2(C2NC(N)=NC2=O)NC1=O (single isomer, unassigned) [Compound 1, 4a-(2-amino-5-oxo-4,5-dihydro-3H-imidazol-4-yl)-2,4,4a,8-tetrahydro-2,6,8-trimethyl-pyrimido[5,4-e]-1,2,4-triazine-3,5,7(6H)-trione] | became active | inactive | much weaker inhibitors |  |  |  |  |  |  |  |  |  |  |
| soluble | insoluble | 85 | unstable | CN1N=C2N(C)C(=O)N(C)C(=O)C2(C2NC(N)=NC2=O)NC1=O (single isomer, unassigned) [Compound 2, 4a-(2-amino-5-oxo-4,5-dihydro-3H-imidazol-4-yl)-2,4,4a,8-tetrahydro-2,6,8-trimethyl-pyrimido[5,4-e]-1,2,4-triazine-3,5,7(6H)-trione] | became active | inactive | much weaker inhibitors |  |  |  |  |  |  |  |  |  |  |
|  |  |  |  | Cn1nc2c(nc1=O)c(=O)n(C)c(=O)n2C [Compound 3, 2,8-dihydro-2,6,8-trimethyl-pyrimido[5,4-e]-1,2,4-triazine-3,5,7(6H)-trione] |  |  | potent PTP inhibitor | inhibited all the PTPs tested | 48 ± 2.0 | 15 ± 2.5 | 34 ± 1.0 | 17 ± 2.0 | 17 ± 4.0 | 17 ± 1.1 | 100 ± 1.0 | neither compound had any detectable effect | antimicrobial activity against Mycobacterium smegmatis (Mycobacterium smegmatis): no antimicrobial activity; antimicrobial activity against Staphylococcus aureus (Staphylococcus aureus): no antimicrobial activity; antimicrobial activity against Escherichia coli (Escherichia coli): no antimicrobial activity; antimicrobial activity against Enterococcus faecalis (Enterococcus faecalis): no antimicrobial activity; antimicrobial activity against Proteus vulgaris (Proteus vulgaris): no antimicrobial activity; antimicrobial activity against Pseudomonas aeruginosa (Pseudomonas aeruginosa): no antimicrobial activity; antimicrobial activity against Candida albicans (Candida albicans): no antimicrobial activity; antimicrobial activity against Curvualaria sp. (Curvualaria sp.): no antimicrobial activity; inhibition at 1 µM (λPP; read-out: inhibition of λPP activity): ~50%; inhibition at 1 µM (CD45; read-out: inhibition of CD45): 83 to 85%; inhibition at 1 µM (TCPTP; read-out: inhibition of TC-PTP): ~65%; inhibition at 1 µM (LAR-D1; read-out: inhibition of LAR-D1): 83 to 85%; inhibition at 1 µM (εD1D2; read-out: inhibition of εD1D2): 83 to 85%; PTP inhibition of αD1D2 at neutral pH (αD1D2; neutral pH, results not shown): continues to behave as a PTP inhibitor; inhibition at 1 µM (αD1D2; read-out: inhibition of αD1D2): 83 to 85% |
|  |  |  |  | Cn1nc2c(nc1=O)n(C)c(=O)n2C [Compound 4, 2,5,7-trimethyl-2,7-dihydro-5H-imidazo[4,5-e]-1,2,4-triazine-3,6-dione] |  |  |  | negligible effects | 100 ± 6.0 | 96 ± 1.0 | 99 ± 2.0 | 97 ± 1.5 | 99 ± 1.0 | 98 ± 0.5 | 99 ± 4.0 | neither compound had any detectable effect | effect on λPP activity (λPP; 1 μM): unaffected |
|  |  |  |  | [Na+].[Na+].[Na+].[O]=[V]([O-])([O-])[O-] [Na3VO4, sodium orthovanadate, reference compound] |  |  |  |  | 49 ± 3.0 | 14 ± 0.5 | 31 ± 5.0 | 26 ± 1.0 | 18 ± 2.0 | 24 ± 1.5 | 98 ± 3.0 | lack of effect |  |
